For 14 compounds, EC50 results are on record in patent publication US11702427B2 (priority 2018, dated 2023).

One experiment relates to HBsAg. Kind of experiment: HBsAg assay: inhibition of HBsAg in HepG2.2.15 cells (CLIA immunoassay of supernatant). The class given is cell-based, hepatitis B virus (HBV). The note with it: Hepatitis B virus, HepG2.2.15, 144 h, read-out: sAg EC50, HepG2.2.15 cells; supernatant collected at day 6 after exposure; HBsAg chemiluminescence immunoassay. The essentials:
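HepG2.2.15 cells (30,000/well) exposed to serially diluted compound (0.5% DMSO) for 2–3 days, then re-dosed in fresh medium for 3–4 more days. On day 6, supernatant HBsAg quantified by chemiluminescence immunoassay; EC50 from dose-response curves. Viability measured separately by CellTiter-Glo.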
For `COCCCOc1cc2c(nc1OCC(F)F)-c1[nH]c(=O)c(C(=O)O)c(O)c1C(C(C)C)C2` (centres unmarked) [Example 42, 9-(2,2-Difluoroethoxy)-4-hydroxy-5-isopropyl-8-(3-methoxypropoxy)-2-oxo-1,2,5,6-tetrahydro-10-phenanthroline-3-carboxylic acid], the EC50 is 12 nM. The same measure, in the same setting: as for `CNc1nc2c(cc1OCCCOC)CC(C(C)C)c1c-2[nH]c(=O)c(C(=O)O)c1O` (centres unmarked) [Example 53, 4-Hydroxy-5-isopropyl-8-(3-methoxypropoxy)-9-(methylamino)-2-oxo-1,2,5,6-tetrahydro-1,10-phenanthroline-3-carboxylic acid], the figure is 15 nM; as for `COCCCOc1cc2c(nc1OC)-c1[nH]c(=O)c(C(=O)O)c(O)c1C(C(C)C)C2` (centres unmarked) [Example 33, 4-Hydroxy-5-isopropyl-9-methoxy-8-(3-methoxypropoxy)-2-oxo-1,2,5,6-tetrahydro-1,10-phenanthroline-3-carboxylic acid], 4 nM.

On to `COCCCOc1cc2c(nc1OC)-c1[nH]c(=O)c(C(=O)O)c(OC)c1C(C(C)(C)C)C2` (centres unmarked) [Example 92, 5-(tert-Butyl)-4,9-dimethoxy-8-(3-methoxypropoxy)-2-oxo-1,2,5,6-tetrahydro-1,10-phenanthroline-3-carboxylic acid], for which the concentration for a half-maximal effect (EC50) is 640 nM. Consider `COCCCOc1cc2c(nc1Cl)-c1[nH]c(=O)c(C(=O)O)c(O)c1C(C(C)C)C2` (centres unmarked) [Example 26, 9-Chloro-4-hydroxy-5-isopropyl-8-(3-methoxypropoxy)-2-oxo-1,2,5,6-tetrahydro-1,10-phenanthroline-3-carboxylic acid], for which the EC50 was 3 nM. Consider `CCOc1nc2c(cc1OCCCOC)CC(C(C)C)c1c-2[nH]c(=O)c(C(=O)O)c1O` (centres unmarked) [Example 39, 9-Ethoxy-4-hydroxy-5-isopropyl-8-(3-methoxypropoxy)-2-oxo-1,2,5,6-tetrahydro-1,10-phenanthroline-3-carboxylicacid], for which the EC50 amounted to 2 nM.

With `COCCCOc1cc2c(nc1N(C)C)-c1[nH]c(=O)c(C(=O)O)c(O)c1C(C(C)C)C2` (centres unmarked) [Example 54, 9-(Dimethylamino)-4-hydroxy-5-isopropyl-8-(3-methoxypropoxy)-2-oxo-1,2,5,6-tetrahydro-1,10-phenanthroline-3-carboxylicacid], the EC50 is 10 nM.

The experiment is the same for the next values; noted with them: read-out: sAg EC50; HepG2.2.15 cells; supernatant collected at day 6 after exposure; HBsAg chemiluminescence immunoassay.
Take `CCOc1nc2c(cc1OCCCOC)CC(C(C)C)c1c-2[nH]c(=O)c(C(=O)O)c1O` (single isomer, unassigned) [Example 40, 9-Ethoxy-4-hydroxy-5-isopropyl-8-(3-methoxypropoxy)-2-oxo-1,2,5,6-tetrahydro-1,10-phenanthroline-3-carboxylic acid]: the EC50 was determined as 87 nM.

On to `COCCCOc1cc2c(cc1OC)-c1[nH]c(=O)c(C(=O)O)c(O)c1C(C)(C(C)C)C2` (single isomer, unassigned) [Example 31, 4-Hydroxy-5-isopropyl-9-methoxy-8-(3-methoxypropoxy)-5-methyl-2-oxo-1,2,5,6-tetrahydrobenzo[h]quinoline-3-carboxylic acid], for which the EC50 was 27 nM.

Turning to `COCCCOc1cc2c(nc1C1CC1)-c1[nH]c(=O)c(C(=O)O)c(O)c1C(C(C)(C)C)CO2` (single isomer, unassigned) [Example 82, 7-(tert-Butyl)-2-cyclopropyl-8-hydroxy-3-(3-methoxypropoxy)-10-oxo-6,7,10,11-tetrahydrooxepino[3,2-b:4,5-b′]dipyridine-9-carboxylic acid], the EC50 was determined as 30000 nM. `COCCCOc1cc2c(nc1OC)-c1[nH]c(=O)c(C(N)=O)c(O)c1C(C(C)(C)C)C2` (single isomer, unassigned) [Example 61, 5-(tert-Butyl)-4-hydroxy-9-methoxy-8-(3-methoxypropoxy)-2-oxo-1,2,5,6-tetrahydro-1,10-phenanthroline-3-carboxamide]: the concentration giving a half-maximal response (EC50) amounted to 300 nM.

With `COCCCOc1cc2c(nc1OC)-c1[nH]c(=O)c(C(=O)O)cc1C(C(C)(C)C)C2` (single isomer, unassigned) [Example 47, 5-(tert-Butyl)-9-methoxy-8-(3-methoxypropoxy)-2-oxo-1,2,5,6-tetrahydro-1,10-phenanthroline-3-carboxylic acid], the EC50 worked out at 1 nM. The same measure, in the same setting: the result for `COCCCOc1cc2c(nc1Cl)-c1[nH]c(=O)c(C(=O)O)c(O)c1C(C(C)C)C2` (single isomer, unassigned) [Example 28, 9-Chloro-4-hydroxy-5-isopropyl-8-(3-methoxypropoxy)-2-oxo-1,2,5,6-tetrahydro-1,10-phenanthroline-3-carboxylic acid] reads 43 nM.

Consider `COCCCOc1cc2c(nc1OC)-c1[nH]c(=O)c(C(=O)O)cc1C(C(C)(C)C)C2` (single isomer, unassigned) [Example 48, 5-(tert-Butyl)-9-methoxy-8-(3-methoxypropoxy)-2-oxo-1,2,5,6-tetrahydro-1,10-phenanthroline-3-carboxylic acid], for which the EC50 was determined as 42 nM.
